The values that follow come from publication PMC9841531, “Indole Derivatives as New Structural Class of Potent and Antiproliferative Inhibitors of Monocarboxylate Transporter 1 (MCT1; SLC16A1)” (Journal of Medicinal Chemistry, 2022).

One data set concerns A-549 cells. The data set can be described thus: 3-BP toxicity against A-549 cells (MTT). The class given is cell-based. The procedure:
(§1) The inhibitory activity of indole derivatives against MCT1 was determined by applying a functional 3-bromopyruvate (3-BP) cell viability assay, as described in the literature[20],[39] with minor modifications. In short, MCT1-expressing A-549 cells[14],[15] were exposed to the MCT1 substrate 3-BP, which becomes influxed by MCT1. 3-BP is toxic, leading to decreased cell viability. Functional inhibition of MCT1 results in reduced intracellular 3-BP levels and, thus, enhanced cell viability compared to no inhibition. […] Table 1 provides the half-maximal inhibition concentration (IC50) values of compounds 17–32.
(§2) A functional 3-BP cytotoxicity assay was conducted as described in the literature[20],[39] with minor modifications. Dilution series of compounds 17–32 between 1 nM and 1 μM were prepared in DPBS (Cell Clone, Genetix Biotech Asia, New Delhi India), and 10 μL of each concentration was pipetted into a colorless flat-bottom 96-well microplate (SPL Life Sciences, Gyeonggi-do, Republic of Korea). One hundred and eighty microliters of a cell suspension (5000 cells/well) of A-549 cells was added, and subsequently, 10 μL of 3-BP was added at a concentration of 1 mM (final concentration per well: 50 μM). The plate was kept for 72 h at 37 °C under a 5% CO2-humidified atmosphere. Cell viability was determined as described before[43] by adding 20 μL of a 5 mg/mL solution of MTT to each well and further incubation for 1 h. Eventually, the supernatant was removed and 100 μL of DMSO was added to each well. The absorbance was spectrophotometrically determined at 570 nm using a SpectraMax iD3 multi-mode microplate reader (Molecular Devices, San Jose, CA) with a background correction (690 nm). The determined absorbance values were correlated to the logarithmic concentrations of compounds 17–32, and IC50 values were calculated applying nonlinear regression using GraphPad Prism (version 8.4.0., San Diego, CA).

Another data set deals with MCF-7 cancer cells. In words: MTT-based cell viability assay, MCF-7. The note with it: Homo sapiens, MCF7, 72 h, read-out: MCF-7 cancer cell toxicity GI50 ± SEM. The text has this: (§3) MCT1-expressing cells have an extraordinary energy demand and rely on pyruvate metabolism, through either lactate conversion or pyruvate consumption. Inhibition of MCT1 blocks lactate and pyruvate influx into cancer cells, which prevents their processing in the TCA cycle. Over time, the viability of cells exposed to an MCT1 inhibitor is impaired due to pyruvate deprivation, which is compensated by upregulating glucose metabolism—leading to an overconsumption of glucose. To confirm the antiproliferative nature of the indole derivatives, we investigated the compounds toward the MCT1-expressing cell lines A-549[14],[15] and MCF-7.[16] Cancer cell viability was assessed via a 3-(4,5-dimethylthiazol-2-yl)-2,5-diphenyltetrazolium bromide (MTT) assay, as reported earlier.[43]
(§4) To determine the growth inhibitory potential of compounds 17–32, […] of each compound either at concentrations between 1 and 100 μM (A-549 or MCF-7) or at 10 and 50 μM (NIH/3T3) was pipetted into colorless flat-bottom 96-well microplates. Thereafter, 180 μL of a cell suspension (5000 cells/well) of either A-549, MCF-7, or NIH/3T3 cells was added and subsequently kept for 72 h at 37 °C under a 5% CO2-humidified atmosphere. The cell viability as well as the GI50 values were determined as described above.[43]

The target of data set [1] is T1, MCT1 (Homo sapiens, UniProt P53985).
T1 construct: MCT1-expressing A-549 cells[14],[15] were exposed to the MCT1 substrate 3-BP, which becomes influxed by MCT1; endogenous in cells; host or cells: A-549 lung cancer cells (from NCCS, Pune)
T1 sequence (P53985 1-500): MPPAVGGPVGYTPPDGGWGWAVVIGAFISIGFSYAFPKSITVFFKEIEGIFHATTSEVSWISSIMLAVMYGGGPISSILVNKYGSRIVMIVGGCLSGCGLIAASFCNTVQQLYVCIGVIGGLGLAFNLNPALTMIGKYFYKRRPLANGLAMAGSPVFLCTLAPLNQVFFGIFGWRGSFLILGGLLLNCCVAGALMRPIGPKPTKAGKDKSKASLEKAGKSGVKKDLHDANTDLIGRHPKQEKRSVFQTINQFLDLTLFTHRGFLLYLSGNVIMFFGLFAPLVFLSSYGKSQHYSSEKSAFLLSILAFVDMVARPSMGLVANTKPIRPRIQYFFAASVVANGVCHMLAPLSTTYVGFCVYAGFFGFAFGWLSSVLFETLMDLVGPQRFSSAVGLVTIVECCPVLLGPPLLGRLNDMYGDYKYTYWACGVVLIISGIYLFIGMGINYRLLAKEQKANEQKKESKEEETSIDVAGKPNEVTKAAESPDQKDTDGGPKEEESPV
T1 sequence (P35613 140-385 partner limits assumed): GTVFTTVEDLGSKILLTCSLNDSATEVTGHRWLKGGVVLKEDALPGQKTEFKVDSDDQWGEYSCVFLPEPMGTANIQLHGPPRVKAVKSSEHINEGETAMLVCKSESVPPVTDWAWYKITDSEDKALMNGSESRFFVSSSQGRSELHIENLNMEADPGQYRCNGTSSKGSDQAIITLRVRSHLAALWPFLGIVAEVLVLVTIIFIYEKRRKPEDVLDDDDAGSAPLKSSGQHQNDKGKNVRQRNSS
The note with it: cited from earlier work.

Data set [2] concerns the target T1, MCT1. The data set can be described thus: functional 3-BP cell viability assay (MCT1 transport inhibition). The class given is cell-based. Conditions: MCT1-expressing A-549 cells, 50 μM 3-BP, 72 h; read-out: MCT1 transport inhibition IC50 ± SEM. As for the experimental part: as §1, §2
The next data set deals with A-549 cancer cells. The data set can be described thus: MTT-based cell viability assay, A-549. The note with it: Homo sapiens, A549, 72 h, read-out: A-549 cancer cell toxicity GI50 ± SEM.
Source text: as §3, §4

For a further data set, the target named is T2, ABCG2 (Homo sapiens, UniProt Q9UNQ0).
T2 sequence (Q9UNQ0 1-655): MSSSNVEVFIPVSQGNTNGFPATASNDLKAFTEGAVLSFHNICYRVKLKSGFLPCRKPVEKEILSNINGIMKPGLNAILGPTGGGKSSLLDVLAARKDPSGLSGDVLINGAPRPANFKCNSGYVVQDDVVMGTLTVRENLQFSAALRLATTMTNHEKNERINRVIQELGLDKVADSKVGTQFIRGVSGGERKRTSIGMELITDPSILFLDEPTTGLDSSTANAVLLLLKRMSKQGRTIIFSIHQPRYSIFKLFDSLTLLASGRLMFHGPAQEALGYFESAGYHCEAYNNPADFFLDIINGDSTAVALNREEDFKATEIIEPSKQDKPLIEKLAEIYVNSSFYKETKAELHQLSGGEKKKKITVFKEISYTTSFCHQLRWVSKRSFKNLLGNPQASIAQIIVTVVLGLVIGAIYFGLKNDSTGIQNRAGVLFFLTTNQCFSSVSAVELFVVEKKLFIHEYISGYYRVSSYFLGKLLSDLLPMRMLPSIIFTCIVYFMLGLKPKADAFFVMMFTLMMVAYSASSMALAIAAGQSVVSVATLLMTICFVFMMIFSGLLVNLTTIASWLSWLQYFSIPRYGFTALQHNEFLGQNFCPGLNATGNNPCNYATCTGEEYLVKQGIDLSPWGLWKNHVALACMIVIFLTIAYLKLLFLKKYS
In words: pheophorbide A assay, ABCG2-expressing MDCK II BCRP cells. The note with it: for ABCG2 inhibition: screening at 10 μM, inhibitor if 20% (+SEM) reached.

A further data set deals with T3, ABCG2 (BCRP) (Homo sapiens, UniProt Q9UNQ0).
T3 sequence (Q9UNQ0 1-655): T2 sequence (Q9UNQ0 1-655)
Described as above. The note with it: human, ABCG2-expressing MDCK II BCRP cells, probe pheophorbide A (0.5 μM final).

Data set [3] addresses T4, ABCB1 (Homo sapiens, UniProt P08183). In words: calcein AM assay, ABCB1-expressing A2780/ADR cells. Conditions: for IC50: read-out: ABCB1 calcein AM IC50 ± SEM, A2780/ADR cells, 22, 23 constrained to reference inhibitor 34; for ABCB1 inhibition: screening at 10 μM, inhibitor if 20% (+SEM) reached.
Source text: (§5) To provide a detailed picture of the pharmacological profile of the indole derivatives, we investigated their modulatory nature on the most prominent ABC transporters ABCB1 (P-glycoprotein, P-gp), ABCC1, (multidrug resistance-associated protein 1, MRP1), and ABCG2 (breast cancer resistance protein, BCRP). Here, we conducted calcein AM (ABCB1),[2],[52]−[59] daunorubicin (ABCC1),[52],[58]−[60] and pheophorbide A (ABCG2)[2],[52]−[60] assays using ABCB1-expressing A2780/ADR, ABCC1-expressing H69AR, and ABCG2-expressing MDCK II BCRP cells, respectively.
(§6) The calcein AM (ABCB1),[2],[52]−[59] daunorubicin (ABCB1[52],[60] and ABCC1[52],[58]−[60]), and pheophorbide A (ABCG2)[2],[52]−[60] assays were conducted as reported earlier. […] The data was processed using GraphPad Prism version 8.4.0, and IC50 values were determined, applying three- or four-parameter logistic equations, whatever was statistically preferred.
The target in the next data set is ABCC1 (Homo sapiens, UniProt P33527). The data set can be described thus: daunorubicin assay, ABCC1-expressing H69AR cells. Conditions: for inhibition at 10 µM: H69AR, read-out: inhibition of ABCC1 in screening; for IC50: read-out: ABCC1 daunorubicin IC50 ± SEM, H69AR cells, 22, 23 constrained to reference inhibitor 35; for ABCC1 inhibition: screening at 10 μM, inhibitor if 20% (+SEM) reached.

Data set [4] deals with T4, ABCB1. The data set can be described thus: daunorubicin assay, ABCB1-expressing A2780/ADR cells. It counts as cell-based. The note with it: A2780/ADR cells; read-out: ABCB1 daunorubicin IC50 ± SEM.
The target of data set [5] is ABCB1 (P-glycoprotein, P-gp) (Homo sapiens, UniProt P08183). Described as above. The class given is cell-based. Conditions: human, ABCB1-expressing A2780/ADR cells, probe daunorubicin (3 μM final); relative to reference inhibitor 34 = 100%; read-out: maximal inhibition (Imax), ABCB1 daunorubicin.

Some results are limits rather than exact numbers.

T4 sequence (P08183 whole entry): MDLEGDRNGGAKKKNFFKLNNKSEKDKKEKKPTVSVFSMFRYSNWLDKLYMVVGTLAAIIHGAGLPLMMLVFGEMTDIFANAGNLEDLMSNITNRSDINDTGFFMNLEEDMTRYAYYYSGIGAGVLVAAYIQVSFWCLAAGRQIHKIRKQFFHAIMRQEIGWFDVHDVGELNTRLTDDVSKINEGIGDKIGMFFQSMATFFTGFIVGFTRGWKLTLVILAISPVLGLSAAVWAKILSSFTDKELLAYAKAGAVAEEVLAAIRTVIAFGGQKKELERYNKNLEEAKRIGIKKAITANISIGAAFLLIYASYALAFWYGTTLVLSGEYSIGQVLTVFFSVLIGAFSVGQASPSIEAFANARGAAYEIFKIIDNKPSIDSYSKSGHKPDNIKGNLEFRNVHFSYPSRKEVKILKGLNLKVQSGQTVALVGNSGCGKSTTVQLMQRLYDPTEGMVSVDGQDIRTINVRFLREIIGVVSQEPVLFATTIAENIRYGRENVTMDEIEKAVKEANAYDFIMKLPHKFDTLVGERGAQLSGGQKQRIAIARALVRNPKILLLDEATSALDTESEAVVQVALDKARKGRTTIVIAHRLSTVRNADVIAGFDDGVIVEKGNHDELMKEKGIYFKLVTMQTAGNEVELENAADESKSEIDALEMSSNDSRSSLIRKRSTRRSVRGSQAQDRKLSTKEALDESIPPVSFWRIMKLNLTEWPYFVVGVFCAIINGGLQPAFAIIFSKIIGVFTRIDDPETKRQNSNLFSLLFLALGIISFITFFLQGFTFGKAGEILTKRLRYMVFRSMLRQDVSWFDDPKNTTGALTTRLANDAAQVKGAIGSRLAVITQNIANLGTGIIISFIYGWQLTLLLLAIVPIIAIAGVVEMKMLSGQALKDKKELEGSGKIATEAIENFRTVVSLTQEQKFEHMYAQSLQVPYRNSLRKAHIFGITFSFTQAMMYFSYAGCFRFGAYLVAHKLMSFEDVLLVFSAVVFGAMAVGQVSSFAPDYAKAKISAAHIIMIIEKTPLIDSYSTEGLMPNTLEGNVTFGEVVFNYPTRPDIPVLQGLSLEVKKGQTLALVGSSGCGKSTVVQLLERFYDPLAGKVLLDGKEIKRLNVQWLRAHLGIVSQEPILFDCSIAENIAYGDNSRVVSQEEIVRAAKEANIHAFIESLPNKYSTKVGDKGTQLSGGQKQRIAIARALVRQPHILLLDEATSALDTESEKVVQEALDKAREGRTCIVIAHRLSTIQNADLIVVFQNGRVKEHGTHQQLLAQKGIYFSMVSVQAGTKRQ
Chain of ABCC1 (P33527 whole entry): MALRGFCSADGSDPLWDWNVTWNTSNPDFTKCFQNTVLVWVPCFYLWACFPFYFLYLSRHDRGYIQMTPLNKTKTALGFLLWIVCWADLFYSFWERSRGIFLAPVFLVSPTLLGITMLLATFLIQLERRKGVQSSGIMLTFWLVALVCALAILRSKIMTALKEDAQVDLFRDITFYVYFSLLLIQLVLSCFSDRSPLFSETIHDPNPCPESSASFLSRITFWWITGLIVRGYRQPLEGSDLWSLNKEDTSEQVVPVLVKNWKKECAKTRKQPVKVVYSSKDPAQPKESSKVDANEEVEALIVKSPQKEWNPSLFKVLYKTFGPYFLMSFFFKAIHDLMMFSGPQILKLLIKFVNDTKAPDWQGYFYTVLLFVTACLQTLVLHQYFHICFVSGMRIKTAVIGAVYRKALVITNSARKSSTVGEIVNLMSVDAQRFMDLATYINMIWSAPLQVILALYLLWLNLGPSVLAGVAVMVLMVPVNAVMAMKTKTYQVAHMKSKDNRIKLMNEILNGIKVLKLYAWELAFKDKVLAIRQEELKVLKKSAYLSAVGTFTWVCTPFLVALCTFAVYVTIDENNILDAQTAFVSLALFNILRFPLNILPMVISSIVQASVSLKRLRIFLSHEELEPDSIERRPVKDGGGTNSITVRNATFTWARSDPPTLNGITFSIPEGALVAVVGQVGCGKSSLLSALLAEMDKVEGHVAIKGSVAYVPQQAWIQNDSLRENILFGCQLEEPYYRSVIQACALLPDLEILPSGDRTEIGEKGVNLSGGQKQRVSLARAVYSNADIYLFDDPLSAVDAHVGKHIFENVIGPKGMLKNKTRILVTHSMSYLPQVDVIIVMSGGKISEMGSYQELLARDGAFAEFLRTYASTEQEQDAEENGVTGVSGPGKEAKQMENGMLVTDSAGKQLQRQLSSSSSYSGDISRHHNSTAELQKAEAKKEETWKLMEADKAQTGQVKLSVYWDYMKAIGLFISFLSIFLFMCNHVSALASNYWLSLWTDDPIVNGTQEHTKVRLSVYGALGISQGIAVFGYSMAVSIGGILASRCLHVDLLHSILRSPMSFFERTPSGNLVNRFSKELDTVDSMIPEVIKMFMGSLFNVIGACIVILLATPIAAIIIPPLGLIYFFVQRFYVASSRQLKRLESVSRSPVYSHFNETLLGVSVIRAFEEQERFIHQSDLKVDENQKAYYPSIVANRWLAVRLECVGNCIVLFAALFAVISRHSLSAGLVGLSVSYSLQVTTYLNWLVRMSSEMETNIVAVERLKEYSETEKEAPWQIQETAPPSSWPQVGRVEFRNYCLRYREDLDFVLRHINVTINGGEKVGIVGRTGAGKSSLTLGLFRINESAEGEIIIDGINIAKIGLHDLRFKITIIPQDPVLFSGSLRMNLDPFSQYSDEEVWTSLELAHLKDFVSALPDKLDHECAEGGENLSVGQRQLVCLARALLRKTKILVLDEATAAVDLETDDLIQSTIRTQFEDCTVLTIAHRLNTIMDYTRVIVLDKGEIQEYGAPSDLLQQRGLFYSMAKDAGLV
Chain of ABCB1 (P-glycoprotein, P-gp) (P08183 whole entry): as the sequence (P08183 whole entry) above
Source text for ABCC1: as §5, §6
Source text for ABCG2 (BCRP): as §5, §6

For the compound `O=C(O)C(=O)CBr` [3-BP, 3-bromopyruvate], the “GI90 of 3-BP” value with A-549 cells (A-549 cells) worked out at 49.8 ± 0.6 µM. The GI50 (commonly the concentration giving 50% growth inhibition) in the data set on A-549 cells (Homo sapiens, A549, read-out: half-maximal growth inhibition (GI50) of 3-BP, A-549 cells) came out at 25 ± 0.4 µM. Further, the inhibition – broadly, the percentage by which the read-out fell short of the control – at 50 µM with A-549 cells (Homo sapiens, A549, 50 μM 3-BP, read-out: inhibition of A-549 cell growth) is no less than 90%.
Take `N#C/C(=C\c1ccc(O)cc1)C(=O)O` [Compound 8, reference compound]: the GI50 in the data set on MCF-7 cancer cells is 108 ± 3 µM; with A-549 cancer cells, 52.7 ± 0.2 µM. Also, the “inhibitory power (MCT1) in the literature” value on MCT1 [1] is on record as “submillimolar to low micromolar concentration ranges”. Also, the IC50 (as a rule, the midpoint of a concentration-inhibition curve) at MCT1 [2] is 0.0872 ± 0.0035 µM.
For `COC(=O)/C(C#N)=C/c1cn(CC(=O)Nc2ccccc2OC)c2ccccc12` [Compound 22, Methyl-2-cyano-3-(1-(2-((2-methoxyphenyl)amino)-2-oxoethyl)-1H-indol-3-yl) Acrylate], the IC50 against ABCG2 was 99.5 ± 24.5 µM; on ABCB1 [3], 24.3 ± 6.4 µM; on ABCC1, 17.3 ± 2.2 µM; on MCT1 [2] it was 0.135 ± 0.002 µM. In addition, the ABCG2 inhibition entry at ABCG2 was “X (Compounds were considered as inhibitors if they reached 20% (+SEM) inhibition compared to the reference inhibitors 33–35; X = fulfilled)”. Moreover, at ABCG2 (BCRP), the inhibition at 120 min, 10 μM is no less than 20%. Also, the 50% growth inhibitory concentration (GI50) was determined as 19.1 ± 0.5 µM in the data set with MCF-7 cancer cells and 26 ± 0.3 µM in the data set with A-549 cancer cells. Besides, at ABCB1 [3], the ABCB1 inhibition entry is reported as “X (Compounds were considered as inhibitors if they reached 20% (+SEM) inhibition compared to the reference inhibitors 33–35; X = fulfilled)”. The inhibition at 10 µM on ABCC1 was no less than 20%. The ABCC1 inhibition entry on ABCC1 is reported as “X (Compounds were considered as inhibitors if they reached 20% (+SEM) inhibition compared to the reference inhibitors 33–35; X = fulfilled)”.
For the compound `COC(=O)/C(C#N)=C/c1cn(CC(=O)Nc2cccc(OC)c2)c2ccccc12` [Compound 23, Methyl-2-cyano-3-(1-(2-((3-methoxyphenyl)amino)-2-oxoethyl)-1H-indol-3-yl) Acrylate], on ABCG2, the IC50 came to 43.5 ± 7.5 µM and the ABCG2 inhibition entry was “X (Compounds were considered as inhibitors if they reached 20% (+SEM) inhibition compared to the reference inhibitors 33–35; X = fulfilled)”. This compound also returned an inhibition at 120 min, 10 μM against ABCG2 (BCRP) of no less than 20%. In the data set on MCF-7 cancer cells, the GI50 is 14.7 ± 0.2 µM. On ABCB1 [3], the IC50 is 5.32 ± 1.67 µM and the ABCB1 inhibition result is “X (Compounds were considered as inhibitors if they reached 20% (+SEM) inhibition compared to the reference inhibitors 33–35; X = fulfilled)”. For the same compound, at ABCC1, the inhibition at 10 µM was no less than 20%, the IC50 came to 19.1 ± 3.4 µM and the ABCC1 inhibition result is listed as “X (Compounds were considered as inhibitors if they reached 20% (+SEM) inhibition compared to the reference inhibitors 33–35; X = fulfilled)”. Besides, the IC50 at MCT1 [2] turned out to be 0.105 ± 0.009 µM. For the same compound, the GI50 in the data set on A-549 cancer cells worked out at 25.5 ± 0.5 µM.
Regarding `COC(=O)/C(C#N)=C/c1cn(CC(=O)Nc2ccc(Br)cn2)c2ccccc12` [Compound 31, Methyl-3-(1-(2-((5-bromopyridin-2-yl)amino)-2-oxoethyl)-1H-indol-3-yl)-2-cyanoacrylate], the GI50 with MCF-7 cancer cells was found to be 3.13 ± 0.23 µM; in the data set with A-549 cancer cells, 18.8 ± 0.2 µM. Further, the IC50 at ABCB1 [3] is 1.4 ± 0.11 µM; on ABCB1 [4], 1.19 ± 0.12 µM; on MCT1 [2], 0.214 ± 0.032 µM. For the same compound, the ABCB1 inhibition result at ABCB1 [3] was “X (Compounds were considered as inhibitors if they reached 20% (+SEM) inhibition compared to the reference inhibitors 33–35; X = fulfilled)”. For the same compound, the inhibition at 180 min in data set [5] is 39%. Besides, the ABCC1 inhibition result on ABCC1 was “X (Compounds were considered as inhibitors if they reached 20% (+SEM) inhibition compared to the reference inhibitors 33–35; X = fulfilled)”.
